Assay results published in the RepoRT retention time repository.

assay: RP, Waters ACQUITY Premier BEH C18, 100 × 2.1 mm, 1.7 µm, 40 °C, 0.3 to 0.4 mL/min, estimated dead time 0.73 min; A: water + 0.1% formic acid; B: acetonitrile + 0.1% formic acid; gradient (min/%B) 0/0.5 0.1/0.5 10/80 10.1/99.5 12/0.5 12.1/0.5 14.5/0.5; details: stereoisomer not certain

| Structure (SMILES) | LC retention time [min] |
| --- | --- |
| Nc1nc2c(ncn2C2OC(COP(=O)(O)O)C(O)C2O)c(=O)[nH]1 (stereo not given) [GUANOSINE MONOPHOSPHATE] | 1.57 |
| CC=CC=CC(=O)O [SORBATE] | 5.71 |
| Cc1cn(C2CC(O)C(CO)O2)c(=O)[nH]c1=O (stereo not given) [THYMIDINE] | 3.56 |
| CC(=O)NCCc1c[nH]c2ccc(O)cc12 [N-ACETYLSEROTONIN] | 4.42 |
| NC(CCCC(=O)O)C(=O)O (stereo not given) [AMINOADIPATE] | 0.943 |
| CCCCCCCCCCCCCC(=O)OC(CC(=O)[O-])C[N+](C)(C)C (stereo not given) [TETRADECANOYLCARNITINE] | 7.44 |
| Nc1ncnc2c1ncn2C1OC(COP(=O)([O-])OP(=O)([O-])OCC2OC(O)C(O)C2O)C(O)C1O (stereo not given) [ADENOSINE DIPHOSPHATE RIBOSE] | 0.954 |
| Nc1ncnc2c1ncn2C1OC2COP(=O)(O)OC2C1O (stereo not given) [CYCLIC AMP] | 3.35 |
| NC(Cc1cc(I)c(Oc2ccc(O)c(I)c2)c(I)c1)C(=O)O (stereo not given) [LIOTHYRONINE] | 6.23 |
| CC(CCC(=O)O)C1CCC2C3CCC4CC(O)CCC4(C)C3CC(O)C12C (stereo not given) [DEOXYCHOLATE] | 7.67 |
| O=C(O)c1ccc(O)cc1 [4-HYDROXYBENZOATE] | 4.37 |
| O=c1cc(-c2ccc(O)c(O)c2)oc2cc(OC3OC(CO)C(O)C(O)C3O)cc(O)c12 (stereo not given) [LUTEOLIN-7-GLUCOSIDE] | 4.44 |
| CC(=O)Oc1cccc(O)c1 [RESORCINOL MONOACETATE] | 5.71 |
| Nc1ccn(C2CC(O)C(COP(=O)(O)O)O2)c(=O)n1 (stereo not given) [DEOXYCYTIDINE MONOPHOSPHATE] | 1.37 |
| CC(=O)NC1C(O)CC(O)(C(=O)O)OC1C(O)C(O)CO (stereo not given) [N-ACETYLNEURAMINATE] | 0.9 |
| CC(=O)NC(Cc1ccccc1)C(=O)O (stereo not given) [N-ACETYLPHENYLALANINE] | 5.18 |
| COC(=O)C1=CCCN(C)C1 [ARECOLINE] | 1.02 |
| O=C1CC(C(=O)O)NC(=O)N1 (stereo not given) [4,5-DIHYDROOROTIC ACID] | 1.12 |
| O=c1c(OC2OC(CO)C(O)C(O)C2O)c(-c2ccc(O)c(O)c2)oc2cc(O)cc(O)c12 (stereo not given) [QUERCETIN 3-GALACTOSIDE] | 4.41 |
| CC(CCC(=O)NCC(=O)O)C1CCC2C3CCC4CC(O)CCC4(C)C3CC(O)C12C (stereo not given) [DEOXYCHOLIC ACID GLYCINE CONJUGATE] | 7.24 |
| Nc1ncnc2c1ncn2C1OC(COP(=O)(O)OS(=O)(=O)O)C(O)C1O (stereo not given) [ADENOSINE PHOSPHOSULFATE] | 1.22 |
| CCCOC(=O)c1ccc(O)cc1 [PROPYLPARABEN] | 6.78 |
| CC(C(=O)O)C(O)(CC(=O)O)C(=O)O (stereo not given) [2-METHYLCITRATE] | 3.44 |

| Structure (SMILES) | LC retention time [min] |
| --- | --- |
| COc1c(O)cc2oc3cc(O)c(CC=C(C)C)c(O)c3c(=O)c2c1CC=C(C)C [ALPHA-MANGOSTIN] | 8.32 |
| COC(=O)C=Cc1ccccc1 [METHYL CINNAMATE] | 7.95 |
| CC1OC(OCC2OC(Oc3cc(O)c4c(c3)OC(c3ccc(O)cc3)CC4=O)C(O)C(O)C2O)C(O)C(O)C1O (stereo not given) [NARIRUTIN] | 4.59 |
| O=C(O)CCCCc1ccccc1 [5-PHENYLVALERIC ACID] | 7.21 |
| Cc1cc2c(C(C)C)c(O)c(O)c(C=O)c2c(O)c1-c1c(C)cc2c(C(C)C)c(O)c(O)c(C=O)c2c1O [(-)-GOSSYPOL] | 8.49 |
| O=C1OCC(Cc2cccc(O)c2)C1Cc1cccc(O)c1 (stereo not given) [ENTEROLACTONE] | 6.68 |
| O=C(O)CCc1c[nH]c2ccccc12 [INDOLE-3-PROPIONIC ACID] | 6.22 |
| CCCCCCC=CCCCCCCCC(=O)O [PALMITOLEIC ACID] | 8.15 |
| O=C(O)C[C@H](NC(=O)Cc1c[nH]c2ccccc12)C(=O)O [L-N-(1H-INDOL-3-YLACETYL)ASPARTIC ACID] | 4.39 |
| CC(=O)NC(CC(C)C)C(=O)O (stereo not given) [N-ACETYLLEUCINE] | 4.88 |
| CCOC(=O)Cc1c[nH]c2ccccc12 [ETHYL 3-INDOLEACETATE] | 7.2 |
| CNCCc1c[nH]c2ccccc12 [N-METHYLTRYPTAMINE] | 4.45 |
| O=C(O)C(O)c1ccc(O)c(O)c1 (stereo not given) [3,4 DIHYDROXYMANDELATE] | 1.62 |
| COc1cc2c(cc1O)CCC1C2CCC2(C)C(=O)CCC12 (stereo not given) [2-METHOXYESTRONE] | 7.38 |
| COC(=O)CCC(=O)OC [DIMETHYL SUCCINATE] | 3.97 |
| O=c1cc(CO)occ1O [KOJIC ACID] | 1.17 |
| O=C(O)c1cccc(O)c1 [3-HYDROXYBENZOATE] | 4.72 |
| CC1CCC2(C(=O)O)CCC3(C)C(=CCC4C5(C)CC(O)C(O)C(C)(CO)C5C(O)CC43C)C2C1C (stereo not drawn) [6BETA-HYDROXYASIATIC ACID] | 7.04 |
| CC(C)=CCOc1c2occc2cc2ccc(=O)oc12 [IMPERATORIN] | 7.46 |
| O=c1[nH]cnc2c1ncn2C1OC(CO)C(O)C1O (stereo not given) [INOSINE] | 3.37 |
| O=CCc1c[nH]c2ccccc12 [INDOLEACETALDEHYDE] | 6.28 |
| CC(C)=CCCC(C)=CCC1=C(C)C(=O)c2ccccc2C1=O [MENAQUINONE] | 10.8 |
